Tests used:
[1] = Inhibitory activity against aminopeptidase
[2] = molecular target: T1, Leukotriene A-4 hydrolase (Homo sapiens, UniProt P09960); test: Inhibitory activity against recombinant human Leukotriene A4 hydrolase
T1 sequence (P09960 whole entry): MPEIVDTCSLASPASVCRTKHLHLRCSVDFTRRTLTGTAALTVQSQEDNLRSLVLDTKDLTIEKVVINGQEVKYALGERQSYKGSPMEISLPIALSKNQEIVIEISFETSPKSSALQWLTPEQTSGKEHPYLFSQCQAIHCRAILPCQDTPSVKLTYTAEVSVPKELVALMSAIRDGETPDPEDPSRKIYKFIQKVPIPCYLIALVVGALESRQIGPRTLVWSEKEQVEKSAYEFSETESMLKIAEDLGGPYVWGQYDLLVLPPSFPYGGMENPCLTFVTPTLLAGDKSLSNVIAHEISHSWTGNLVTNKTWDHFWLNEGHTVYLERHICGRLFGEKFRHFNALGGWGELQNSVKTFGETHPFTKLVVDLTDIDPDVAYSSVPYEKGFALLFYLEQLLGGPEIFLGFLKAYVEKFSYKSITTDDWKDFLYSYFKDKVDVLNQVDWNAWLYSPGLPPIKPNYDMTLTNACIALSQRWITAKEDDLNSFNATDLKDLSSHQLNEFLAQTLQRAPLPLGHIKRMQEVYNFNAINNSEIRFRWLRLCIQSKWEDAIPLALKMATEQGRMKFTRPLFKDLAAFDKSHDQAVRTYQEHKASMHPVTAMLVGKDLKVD

[3] = molecular target: T2, Angiotensin-converting enzyme (Oryctolagus cuniculus, UniProt P12822); test: Inhibitory activity against rabbit lung angiotensin-converting enzyme (ACE)
T2 sequence (P12822 whole entry): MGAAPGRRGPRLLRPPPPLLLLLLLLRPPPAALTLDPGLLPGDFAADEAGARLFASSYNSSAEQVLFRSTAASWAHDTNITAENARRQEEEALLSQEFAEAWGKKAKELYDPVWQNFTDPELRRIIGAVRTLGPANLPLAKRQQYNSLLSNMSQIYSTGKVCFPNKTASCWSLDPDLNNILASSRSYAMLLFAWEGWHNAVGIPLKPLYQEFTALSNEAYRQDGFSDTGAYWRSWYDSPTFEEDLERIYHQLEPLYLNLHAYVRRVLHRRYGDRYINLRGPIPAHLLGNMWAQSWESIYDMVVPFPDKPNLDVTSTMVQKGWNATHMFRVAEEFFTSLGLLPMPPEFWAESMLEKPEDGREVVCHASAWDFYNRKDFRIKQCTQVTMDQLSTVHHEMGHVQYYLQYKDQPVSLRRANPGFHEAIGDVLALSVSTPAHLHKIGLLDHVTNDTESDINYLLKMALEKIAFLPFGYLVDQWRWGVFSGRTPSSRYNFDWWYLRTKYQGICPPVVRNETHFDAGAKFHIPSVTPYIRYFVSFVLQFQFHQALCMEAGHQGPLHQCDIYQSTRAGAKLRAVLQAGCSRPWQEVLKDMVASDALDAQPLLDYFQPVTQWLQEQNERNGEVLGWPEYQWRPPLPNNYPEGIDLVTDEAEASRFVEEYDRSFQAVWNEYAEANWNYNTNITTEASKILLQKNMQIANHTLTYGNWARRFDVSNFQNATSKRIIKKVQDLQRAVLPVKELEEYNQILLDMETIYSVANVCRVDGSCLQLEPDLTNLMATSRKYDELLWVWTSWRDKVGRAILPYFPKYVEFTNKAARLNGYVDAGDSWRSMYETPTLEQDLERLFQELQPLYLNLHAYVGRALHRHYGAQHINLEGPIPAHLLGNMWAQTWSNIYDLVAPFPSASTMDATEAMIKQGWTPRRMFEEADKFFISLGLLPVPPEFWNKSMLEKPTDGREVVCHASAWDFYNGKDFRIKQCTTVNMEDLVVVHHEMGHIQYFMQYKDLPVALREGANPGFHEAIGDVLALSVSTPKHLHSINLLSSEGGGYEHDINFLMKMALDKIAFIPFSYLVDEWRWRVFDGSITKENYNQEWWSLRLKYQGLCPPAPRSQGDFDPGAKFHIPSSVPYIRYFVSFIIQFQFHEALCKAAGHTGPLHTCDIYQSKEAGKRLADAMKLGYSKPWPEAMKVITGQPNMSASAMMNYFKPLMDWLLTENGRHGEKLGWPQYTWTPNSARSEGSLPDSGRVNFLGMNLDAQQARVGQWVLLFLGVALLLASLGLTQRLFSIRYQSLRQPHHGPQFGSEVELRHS

Neprilysin = molecular target: T3, Neprilysin (Oryctolagus cuniculus, UniProt P08049); test: Inhibitory activity against rabbit kidney neutral endopeptidase (NEP)
T3 sequence (P08049 whole entry): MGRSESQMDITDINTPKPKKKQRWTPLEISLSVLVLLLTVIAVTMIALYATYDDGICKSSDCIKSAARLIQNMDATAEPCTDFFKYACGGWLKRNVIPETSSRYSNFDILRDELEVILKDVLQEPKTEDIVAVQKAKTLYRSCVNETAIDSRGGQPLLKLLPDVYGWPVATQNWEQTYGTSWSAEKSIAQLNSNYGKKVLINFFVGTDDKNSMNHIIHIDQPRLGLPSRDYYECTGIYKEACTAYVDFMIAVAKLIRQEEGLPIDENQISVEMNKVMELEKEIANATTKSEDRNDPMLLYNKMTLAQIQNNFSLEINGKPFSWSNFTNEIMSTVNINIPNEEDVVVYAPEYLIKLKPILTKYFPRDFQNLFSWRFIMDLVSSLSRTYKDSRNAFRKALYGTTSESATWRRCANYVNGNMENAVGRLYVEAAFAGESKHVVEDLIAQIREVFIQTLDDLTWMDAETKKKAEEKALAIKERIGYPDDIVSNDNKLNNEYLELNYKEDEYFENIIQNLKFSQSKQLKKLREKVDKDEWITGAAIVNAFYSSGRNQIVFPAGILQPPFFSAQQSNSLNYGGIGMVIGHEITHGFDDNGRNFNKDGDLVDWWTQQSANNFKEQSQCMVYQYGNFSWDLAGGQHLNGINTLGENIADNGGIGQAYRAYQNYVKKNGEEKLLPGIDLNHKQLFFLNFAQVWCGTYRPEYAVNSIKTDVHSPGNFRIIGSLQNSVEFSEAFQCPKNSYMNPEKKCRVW

[4] = molecular target: T2, Angiotensin-converting enzyme; test: Inhibitory activity against rabbit lung angiotensin-converting enzyme(ACE)
[5] = molecular target: T1, Leukotriene A-4 hydrolase; test: Inhibitory activity against LTA 4 hydrolase in epoxide hydrolase assay
[6] = molecular target: T1, Leukotriene A-4 hydrolase; test: Inhibitory activity against LTA 4 hydrolase in aminopeptidase assay

| IC50 [4] [nM] | Ki [5] [nM] | Ki [6] [nM] | Compound | IC50 [1] [nM] | IC50 [2] [nM] | IC50 [3] [nM] | IC50 (Neprilysin) [nM] |
| --- | --- | --- | --- | --- | --- | --- | --- |
| – | – | – | O=C(C[C@@H](Cc1ccccc1)C(=O)N1CCC[C@@H]1C(=O)O)NO | 15000 | 20000 | > 100000 | – |
| – | – | – | C[C@H](NC(=O)[C@@H](CCS)CC1CCCCC1)C(=O)O | – | > 3000 | – | > 100000 |
| – | – | – | O=C(C[C@@H](Cc1ccccc1)C(=O)N[C@@H](Cc1c[nH]c2ccccc12)C(=O)O)NO | 5 | 10 | – | – |
| 20000 | – | – | C[C@H](NC(=O)[C@@H](CCC(=O)NO)Cc1ccccc1)C(=O)O | – | > 10000 | – | – |
| > 100000 | – | – | C[C@H](NC(=O)[C@@H](CC(=O)O)Cc1ccccc1)C(=O)O | 140 | 300 | – | – |
| 20000 | – | – | CSCC[C@@H](NC(=O)[C@@H](CC(=O)NO)Cc1ccccc1)C(=O)O | 2 | 12 | – | 61000 |
| – | – | – | O=C(C[C@@H](Cc1ccccc1)C(=O)N1CCC[C@H]1C(=O)O)NO | 18 | 30 | 3000 | > 36000 |
| 200 | – | – | C[C@H](NC(=O)C(CS)Cc1ccccc1)C(=O)O (stereo not given in full) | > 10000 | > 3000 | – | – |
| > 100000 | – | – | C[C@@H](C(=O)O)N(C)C(=O)[C@@H](CC(=O)NO)Cc1ccccc1 | 1 | 3 | – | 3400 |
| – | – | – | C[C@H](CS)C(=O)N1CCC[C@H]1C(=O)O [CAPTOPRIL] | 2000 | 10000 | – | – |
| – | 18 | 10 | C[C@H](NC(=O)[C@@H](CC(=O)NO)Cc1ccccc1)C(=O)O [KELATORPHAN] | 7 | 5 | > 10000 | 46 |

| Compound | IC50 [4] [nM] | Ki [5] [nM] | Ki [6] [nM] | IC50 [1] [nM] | IC50 [2] [nM] | IC50 [3] [nM] | IC50 (Neprilysin) [nM] |
| --- | --- | --- | --- | --- | --- | --- | --- |
| C[C@H](NC(=O)[C@@H](CC(=O)NO)CC1CCCCC1)C(=O)O | > 100000 | – | – | 10 | 5 | – | 2000 |
| O=C(C[C@@H](Cc1ccccc1)C(=O)N1CCCC[C@H]1C(=O)O)NO | 40000 | – | – | 10 | 8 | – | 17000 |
| O=C(C[C@@H](Cc1ccccc1)C(=O)N[C@@H](CC1CCCCC1)C(=O)O)NO | > 100000 | – | – | 42 | 10 | – | 104000 |
| O=C(C[C@@H](Cc1ccccc1)C(=O)N1CCCC[C@@H]1C(=O)O)NO | > 100000 | – | – | 2300 | 1800 | – | – |

— ChEMBL document CHEMBL1128059, “Kelatorphan and related analogs: potent and selective inhibitors of leukotriene A4 hydrolase” (Bioorg Med Chem Lett, 1995)
